Patent US12594267B2, “Capsid inhibitors for the treatment of HIV” (Gilead Sciences, Inc., priority 2018, dated 2026)
Where two headings read alike, the source gives them in different places.

Columns and labels:
NRTI-resistant viruses = format: cell-based, HIV-1; details: MT-2 cells; for EC50 Fold-Change: Mutant/WT (LAI) EC50 ratio, mean ± s.d. of three experiments
Protocol: (§1) The antiviral activity of the compound of Formula (a) was tested against a panel of known HIV-1 mutants resistant to HIV PIs (ATV and DRV), NRTIs (TFV and FTC), NNRTIs (RPV and EFV) or INSTIs (RAL, EVG and DTG) using a cytopathic antiviral assay in MT-2 cells.

[1] = IV AUC used as reference for % F of capsules; design: species or system beagle dogs; details: beagle, dog, in vivo; IV at 1 mg/kg; reference for % F in Table 9; read-out: average IV AUC0-72h
WT HXB2D = assay: Cytopathic antiviral assay in MT-2 cells, wild type HXB2D; format: cell-based, HIV-1; details: mean ± s.d. of three experiments in triplicate
Protocol: as §1, with “cells. The compound of Formula (Ia) was fully active against all tested mutants resistant to PIs (Table 11), NRTIs (Table 12), NNRTIs (Table 13) or INSTIs (Table 14).” for “cells.”

PI-resistant viruses = assay: Cytopathic antiviral assay in MT-2 cells, PI-resistant viruses; format: cell-based, HIV-1; details: for EC50 Fold-Change: Mutant/WT (HXB2D) EC50 ratio, mean ± s.d. of three experiments
Protocol: as §1, with “cells. The compound of Formula (Ia) was fully active against all tested mutants resistant to PIs (Table 11), NRTIs (Table 12), NNRTIs (Table 13) or INSTIs (Table 14).” for “cells.”

[2] = PK after oral administration in liquid-filled capsules in dogs; format: in vivo, beagle dogs; details: for bioavailability: oral, calculated based on AUC0-72h vs average IV AUC0-72h
Protocol: A single dose of the compound of Formula (Ia), formulated as liquid-filled capsules (LFC) containing either 100% glycerol monocaprylocaprate or 20% caprylocaproyl polyoxyl-8 glycerides and 80% glycerol monocaprylocaprate was administered orally at 7.5 mg fixed dose to 6 male beagle dogs (Table 9). At 100 mg/mL of the compound of Formula (Ia), the AUCinf increased with increasing glycerol monocaprylocaprate content. For the formulation with 100% glycerol monocaprylocaprate, the AUCinf at 50 mg/mL was higher than that at 100 mg/mL.
A single dose of the compound of Formula (Ia), formulated as liquid-filled capsules (LFC) containing 100% glycerol monocaprylocaprate, was administered orally at 7.5 mg fixed dose to 6 beagle dogs (Table S) and the pharmacokinetic (PK) profile was determined. […] Plasma concentrations of the compound of Formula (Ia) were maintained above the target trough concentration of 20 nM for at least 72 hours (3 days).

[3] = Plasma PK after single oral administration in solution, dog; format: in vivo, Beagle Dog
Protocol: (§2) An oral formulation containing a compound of Formula (Ia) in […], 20% propylene glycol, 45 PEG 300, and 30% 0.01 N HCl was prepared. The formulation was orally administered to male rat, dog, cynomolgus monkey, and rhesus monkey according to the doses shown in Table 8 below.

[4] = PK after oral administration of spray-dried dispersion (SDD) tablets in dogs; format: in vivo; details: beagle dogs, 300 mg fixed dose
Protocol: A tablet, prepared from a spray-dried dispersion of a sodium salt of the compound of Formula (Ia), was prepared in a composition shown in Table T below (with an outer film coating made of Opadry® II White 85F18422, wherein the outer film coating provides a 3% weight gain based on the uncoated tablet) and was administered orally at 300 mg fixed dose to 6 beagle dogs (Table U) and the pharmacokinetic (PK) profile was determined. […] Plasma concentrations of the compound of Formula (Ia) were maintained above the target trough concentration of 20 nM for at least 14 days (2 weeks).

[5] = Plasma PK after single oral administration in solution, summary over the four species; format: in vivo; details: male, Sprague-Dawley (rat), beagle (dog), range of species means (rat, dog, cynomolgus monkey, rhesus monkey)
Protocol: as §2

[6] = Plasma PK after single oral administration in solution, rhesus monkey; format: in vivo
Protocol: as §2

HIV-2 isolates = assay: Antiviral activity against HIV-2 isolates in PHA-stimulated human PBMCs; format: cell-based; details: Human immunodeficiency virus 2, PBMC, 168 h, 7-day infection, RT activity readout, mean of triplicate
Protocol: The antiretroviral activity of the compound of Formula (Ia) was tested against a panel of 22 HIV-1 clinical isolates of HIV-1 and two HIV-2 isolates in freshly isolated, PHA-stimulated human peripheral blood mononuclear cells (PBMCs). The HIV-1 isolates included representative strains from subtypes A, B, C, D, E, F, G, N, O, AE, and AG. Following a 7-day infection, virus production was determined by measuring reverse transcriptase activity in cell-free culture supernatants.

WT LAI = assay: microbe, parasite or virus in culture; format: cell-based, HIV-1; details: Human immunodeficiency virus 1, MT2, read-out: WT LAI EC50
Protocol: as §1

[7] = dog, plasma, fasted, pentagastrin-pretreated male beagle dogs, oral LFC 7.5 mg fixed dose, 20% caprylocaproyl polyoxyl-8 glycerides and 80% glycerol monocaprylocaprate, 100 mg/mL, mean ± SD, n=6
[8] = male, beagle, dog, plasma, po, 7.5 mg, fasted, pentagastrin-pretreated male beagle dogs, oral LFC 7.5 mg fixed dose, 100% glycerol monocaprylocaprate, 50 mg/mL, mean ± SD, n=6
[9] = male, beagle, dog, plasma, po, 7.5 mg, fasted, pentagastrin-pretreated male beagle dogs, oral LFC 7.5 mg fixed dose, 100% glycerol monocaprylocaprate, 100 mg/mL, mean ± SD, n=6
[10] = male, beagle, plasma, dog, single oral 4.0 mg/kg, solution in 5% ethanol/20% propylene glycol/45% PEG 300/30% 0.01 N HCl, mean ± SD, n=3
[11] = dog, plasma, oral SDD tablet of the sodium salt (Table T composition, Opadry II White film coat), mean ± SD, n=6
[12] = male, plasma, single oral 4.0 mg/kg, solution in 5% ethanol/20% propylene glycol/45% PEG 300/30% 0.01 N HCl, mean ± SD, n=3

## CC(C)(C#Cc1ccc(-c2ccc(Cl)c3c(NS(C)(=O)=O)nn(CC(F)(F)F)c23)c([C@H](Cc2cc(F)cc(F)c2)NC(=O)Cn2nc(C(F)(F)F)c3c2C(F)(F)[C@@H]2C[C@H]32)n1)S(C)(=O)=O [Formula (Ia), N—((S)-1-(3-(4-chloro-3-(methylsulfonamido)-1-(2,2,2-trifluoroethyl)-1H-indazol-7-yl)-6-(3-methyl-3-(methylsulfonyl)but-1-yn-1-yl)pyridin-2-yl)-2-(3,5-difluorophenyl)ethyl)-2-((3bS,4aR)-5,5-difluoro-3-(trifluoromethyl)-3b,4,4a,5-tetrahydro-1H-cyclopropa[3,4]cyclopenta[1,2-c]pyrazol-1-yl)acetamide]
NRTI-resistant viruses; 6TAMs
  EC50 Fold-Change: 0.4 ± 0.2
NRTI-resistant viruses; K65R
  EC50 Fold-Change: 0.7 ± 0.2
NRTI-resistant viruses; M184V
  EC50 Fold-Change: 0.5 ± 0.3
NRTI-resistant viruses; mutants resistant to NRTIs
  activity against all tested mutants, in words: fully active
[1]
  AUC(0-t): 13.5 µM·h
WT HXB2D; Human immunodeficiency virus 1, MT2, read-out: WT HXB2D EC50, MT-2 cells, INSTI-resistance panel (Table 14)
  EC50: 0.13 ± 0.03 nM
WT HXB2D; Human immunodeficiency virus 1, MT2, read-out: WT HXB2D EC50, MT-2 cells, NNRTI-resistance panel (Table 13)
  EC50: 0.18 ± 0.02 nM
WT HXB2D; MT-2 cells, PI-resistance panel (Table 11), read-out: WT HXB2D EC50
  EC50: 0.24 ± 0.14 nM
PI-resistant viruses; G48V/V82A/L90M
  EC50 Fold-Change: 0.4 ± 0.2
PI-resistant viruses; G48V/V82S
  EC50 Fold-Change: 0.4 ± 0.1
PI-resistant viruses; I50V
  EC50 Fold-Change: 0.6 ± 0.2
PI-resistant viruses; I84V/L90M
  EC50 Fold-Change: 0.3 ± 0.1
PI-resistant viruses; mutants resistant to PIs
  activity against all tested mutants, in words: fully active
[2]; beagle dogs, oral liquid-filled capsules, 100% glycerol monocaprylocaprate, 7.5 mg fixed dose
  Time plasma concentrations maintained above the target trough concentration of 20 nM: at least 72 hours
[2]; beagle, dog, plasma, po, 7.5 mg, beagle dogs, oral liquid-filled capsules, 100% glycerol monocaprylocaprate, 7.5 mg fixed dose, 50 mg/mL (Table S), mean ± SD, n=6
  Tmax: 11 ± 10.1 h
[2]; beagle, dog, plasma, po, 7.5 mg, beagle dogs, oral liquid-filled capsules, 100% glycerol monocaprylocaprate, 7.5 mg fixed dose, 50 mg/mL (Table S), mean ± SD, n=6, read-out: AUC0-72h
  AUC(0-t): 5.07 ± 4.65 µM·h
[2]; beagle, dog, plasma, po, 7.5 mg, beagle dogs, oral liquid-filled capsules, 100% glycerol monocaprylocaprate, 7.5 mg fixed dose, 50 mg/mL (Table S), mean ± SD, n=6, read-out: AUC0-14d
  AUC(0-t): 108 ± 16 µM·h
[2]; dog, plasma, beagle dogs, oral liquid-filled capsules, 100% glycerol monocaprylocaprate, 7.5 mg fixed dose, 50 mg/mL (Table S), mean ± SD, n=6, read-out: C72h
  concentration at 72 h: 20.1 ± 24.4 nM
[2]; [7]
  AUC(0-inf): 1.3 ± 0.634 µM·h
  Cmax: 53.2 ± 16.7 nM
  Tmax: 7.7 ± 8 h
[2]; dog, plasma, fasted, pentagastrin-pretreated male beagle dogs, oral LFC 7.5 mg fixed dose, 20% caprylocaproyl polyoxyl-8 glycerides and 80% glycerol monocaprylocaprate, 100 mg/mL, mean ± SD, n=6, read-out: AUC0-72h
  AUC(0-t): 1.18 ± 0.575 µM·h
[2]; male, beagle, dog, plasma, 7.5 mg, as above (20%/80% LFC, 100 mg/mL), mean ± SD, n=6
  bioavailability: 11 ± 4%
[2]; male, beagle, dog, plasma, 7.5 mg, as above (100% glycerol monocaprylocaprate LFC, 50 mg/mL), mean ± SD, n=6
  bioavailability: 22 ± 10%
[2]; male, beagle, dog, plasma, 7.5 mg, as above (100% glycerol monocaprylocaprate LFC, 100 mg/mL), mean ± SD, n=6
  bioavailability: 16 ± 9%
[2]; [8]
  AUC(0-inf): 2.33 ± 1.35 µM·h
  Cmax: 82.7 ± 32.1 nM
  Tmax: 4 h
[2]; male, beagle, dog, plasma, po, 7.5 mg, fasted, pentagastrin-pretreated male beagle dogs, oral LFC 7.5 mg fixed dose, 100% glycerol monocaprylocaprate, 50 mg/mL, mean ± SD, n=6, read-out: AUC0-72h
  AUC(0-t): 2.18 ± 1.24 µM·h
[2]; [9]
  AUC(0-inf): 1.87 ± 1.19 µM·h
  Cmax: 71.2 ± 25.8 nM
  Tmax: 5 ± 1.1 h
[2]; male, beagle, dog, plasma, po, 7.5 mg, fasted, pentagastrin-pretreated male beagle dogs, oral LFC 7.5 mg fixed dose, 100% glycerol monocaprylocaprate, 100 mg/mL, mean ± SD, n=6, read-out: AUC0-72h
  AUC(0-t): 1.67 ± 1.04 µM·h
[3]; dogs, oral solution
  F % (bioavailability), in words: moderate
[3]; male, beagle, plasma, dog, single oral 4.0 mg/kg, same solution, calculated based on AUC0-72h, mean ± SD, n=3, read-out: F (oral bioavailability)
  bioavailability: 22.1 ± 8.4%
[3]; [10]
  AUC(0-inf): 16500 ± 10400 µM·h
  Cmax: 471000 ± 203000 nM
  Tmax: 10.7 ± 11.5 h
[3]; male, beagle, plasma, dog, single oral 4.0 mg/kg, solution in 5% ethanol/20% propylene glycol/45% PEG 300/30% 0.01 N HCl, mean ± SD, n=3, read-out: AUC0-72h
  AUC(0-t): 11400 ± 4320 µM·h
[4]; oral SDD tablet of the sodium salt
  Time plasma concentrations maintained above the target trough concentration of 20 nM: at least 14 days
[4]; [11]
  AUC(0-inf): 18.5 ± 11.1 µM·h
  Cmax: 718 ± 409 nM
  Tmax: 5.3 ± 3.3 h
[4]; dog, plasma, oral SDD tablet of the sodium salt (Table T composition, Opadry II White film coat), mean ± SD, n=6, read-out: AUC0-72h
  AUC(0-t): 15.8 ± 10 µM·h
[4]; dog, plasma, oral SDD tablet of the sodium salt (Table T composition, Opadry II White film coat), mean ± SD, n=6, read-out: C72h
  concentration at 72 h: 61.4 ± 30 nM
[5]
  Tmax: 8.7 to 18.7 h
[6]; male, plasma, single oral 4.0 mg/kg, same solution, calculated based on AUC0-72h, mean ± SD, n=3, read-out: F (oral bioavailability)
  bioavailability: 4.4 ± 1.7%
[6]; [12]
  AUC(0-inf): 1130 ± 446 µM·h
  Cmax: 29400 ± 7500 nM
  Tmax: 18.7 ± 9.2 h
[6]; male, plasma, single oral 4.0 mg/kg, solution in 5% ethanol/20% propylene glycol/45% PEG 300/30% 0.01 N HCl, mean ± SD, n=3, read-out: AUC0-72h
  AUC(0-t): 972 ± 367 µM·h
[6]; oral solution
  F % (bioavailability), in words: low
HIV-2 isolates; HIV-2 isolate CBL-20
  EC50: 0.57 nM
HIV-2 isolates; HIV-2 isolate CDC310319
  EC50: 1.02 nM
WT LAI
  EC50: 0.14 ± 0.03 nM
